Experimental data published in patent US20220411362A1, “DITERPENOID COMPOUNDS THAT ACT ON PROTEIN KINASE C (PKC)” (K-Gen, Inc., priority 2019, published 2022).
Like-named read-outs stand apart in the source and are kept apart here.

Legend:
[1] = molecular target: T1, C1b domain of human PKCδ (Homo sapiens, UniProt Q05655); experiment: Competitive 3H-PDBu binding to C1b domain of PKCδ; conditions: 3H-PDBu competition
T1 construct: Genes encoding C1b domains of human PKCα, δ, ε, θ, and PKD1 (PKCμ) were synthesized; made in house; host or cells: E. coli BL21(DE3)
T1 sequence (Q05655 230-280 limits assumed): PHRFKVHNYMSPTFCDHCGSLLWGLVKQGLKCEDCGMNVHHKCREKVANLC
Procedure: (§1) Compounds described in this disclosure were tested for binding affinity to C1b domain of PKC isoforms. Compound binding affinity to C1b domain of PKC isoforms was derived from competitive binding assay using radioactive tracer ^3H-PDBu and recombinant GST-C1b or full-length of human PKC proteins based on modified procedures from Methods in Molecular Biology, vol.
(§2) Genes encoding C1b domains of human PKCα, δ, ε, θ, and PKD1 (PKCμ) were synthesized and inserted into pGEX-2TK or pGEX-4T1 vectors for expression and production of GST-C1b proteins in E. coli BL21(DE3) via IPTG induction. The target proteins were purified by glutathione sepharose 4B and followed by ion exchange chromatography if needed to achieve purity >70%. Aliquots of the purified proteins were stored at −80 degree for binding assay (storage buffer: 20 mM Tris pH 8.0, 200 mM NaCl, 10% glycerol, 1 mM DTT).
(§3) The plate was incubated at 37° C. on a shaker at 300 rpm for 10 minutes and then put on ice for 20 minutes. […] The bottom of the filter plate was sealed and 50 μL of MicroScint-20 (PerkinElmer) cocktail was added to each well. ^3H-PDBu trapped in each well was counted using PerkinElmer MicroBeta2 Reader. Data were analyzed using GraphPad Prism5 with the model “log(inhibitor) vs. response-variable slope” to fit the IC50, and then IC50 was transformed to Ki using Cheng-Prusoff equation: Ki=IC50/(1+added radio ligand/Kd). Kd is the binding affinity of each protein preparation to ^3H-PDBu, determined experimentally.

[2] = molecular target: T2, C1b domain of human PKCα (Homo sapiens, UniProt P17252); experiment: biochemical; type: binding; conditions: 3H-PDBu competition
T2 construct: Genes encoding C1b domains of human PKCα, δ, ε, θ, and PKD1 (PKCμ) were synthesized; made in house; host or cells: E. coli BL21(DE3)
Procedure: as §1, §2
The plate was incubated at 37° C. on a shaker at 300 rpm for 10 minutes and then put on ice for 20 minutes. […] The bottom of the filter plate was sealed and 50 μL of MicroScint-20 (PerkinElmer) cocktail was added to each well. ^3H-PDBu trapped in each well was counted using PerkinElmer MicroBeta2 Reader. […] Kd is the binding affinity of each protein preparation to ^3H-PDBu, determined experimentally.

[3] = molecular target: T3, C1b domain of human PKCθ (Homo sapiens, UniProt Q04759); experiment: Competitive 3H-PDBu binding to C1b domain of PKCθ
T3 construct: Genes encoding C1b domains of human PKCα, δ, ε, θ, and PKD1 (PKCμ) were synthesized; made in house; host or cells: E. coli BL21(DE3)
T3 sequence (Q04759 231-281 limits assumed): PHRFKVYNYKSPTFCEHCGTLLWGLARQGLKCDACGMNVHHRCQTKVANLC
Procedure: as §1, §2, §3

[4] = molecular target: T4, C1b domain of human PKCε (Homo sapiens, UniProt Q02156); experiment: Competitive 3H-PDBu binding to C1b domain of PKCε
T4 construct: Genes encoding C1b domains of human PKCα, δ, ε, θ, and PKD1 (PKCμ) were synthesized; made in house; host or cells: E. coli BL21(DE3)
T4 sequence (Q02156 242-292 limits assumed): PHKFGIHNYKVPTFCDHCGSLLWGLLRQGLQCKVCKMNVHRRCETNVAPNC
Procedure: as §1, §2, §3

[5] = molecular target: T5, C1b domain of human PKD1 (PKCμ) (Homo sapiens, UniProt Q15139); experiment: biochemical; type: binding
T5 construct: Genes encoding C1b domains of human PKCα, δ, ε, θ, and PKD1 (PKCμ) were synthesized; made in house; host or cells: E. coli BL21(DE3)
T5 sequence (Q15139 270-320 limits assumed): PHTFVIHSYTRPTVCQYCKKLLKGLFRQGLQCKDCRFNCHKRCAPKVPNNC
Procedure: as §1, §2, §3

[6] = system: A549 non-small cell lung cancer cell line; experiment: Proliferation of A549 (CellTiter Glo); type: cell-based; conditions: Homo sapiens, read-out: IC50 μM (A549 Cell Line)
Procedure: (§4) The diterpenoid compounds were tested in A549, a non-small cell lung cancer cell line harboring a K-Ras activating mutation. Briefly, A549 cells at a density of 1,000 cells/well were seeded in 96-well plates and incubated at 37° C. for 24 hours. A series of different concentrations of compound stocks (500×) were prepared by 3-fold serial dilution in DMSO. These compounds were further diluted in culture media and then added to cells so that the final DMSO concentration was not exceeding 0.25%. After 96 hours of incubation, 50 μL of CellTiter Glo reagent (Promega) was added to each well and luminescence was measured after 10 minutes using EnVision (PerkinElmer). Luminescence from cells treated with DMSO alone was set as Max and % of inhibition was calculated as follows: Inhibition %=(Max−Sample value)/Max×100. Data was analyzed using XL-fit software (ID Business Solutions Ltd.) and IC50, relative IC50, and % of top inhibition was calculated. Some of the compounds in this disclosure were very potent in blocking proliferation of A549 lung cancer cells at low nM range. In addition, potency of inhibiting A549 proliferation correlated well with its binding affinity to PKCs for this series of compounds. In other words, higher affinity binders had stronger inhibitory effects on A549 proliferation. This further support the notion that activation, rather than inhibition, of certain PKC isoforms is required to block proliferation of cancer cells, some of which may harbor K-Ras mutations. This is in sharp contrast to previous literature and common belief that inhibition of PKC is necessary to block cancer cell growth (Kang, 2014, New Journal of Science, 2014:1-36). Data presented here is in agreement with recent findings that many loss-of-function but not gain-of-function mutations of PKC isoforms have been identified in many human cancers (Antal et al., 2015, Cell, 160:489-502).

[7] = system: HL-60 (Leukemia) cell line; experiment: Proliferation of HL-60; type: cell-based
Procedure: as §4
(§5) The compounds in this disclosure were tested for their potency in blocking proliferation of a few other cancer cells lines, including K-Ras mutant pancreatic cell lines Panc2.13 and KP-4, leukemia cell line HL-60, and lymphoma cell lines Namalwa and Mino. Similar procedures as in Example 67 were followed. Initial cell numbers seeded in 96-well plates were different for different cell lines: 3000 cells/well for Panc2.13; 800-1000 cells/well for KP-4; 5000 cells/well for HL-60; 5000-10000 cells/well for Namalwa and Mino. A ratio ratio of (IC50 of K01)/(IC50 of compound) (data in parenthesis in Table 5) was used to normalize the compound potency from different assay batches to a common comparator […].

[8] = system: Namalwa (Lymphoma) cell line; experiment: Proliferation of Namalwa; type: cell-based; conditions: for ratio of (IC50 of K01)/(IC50 of compound), Namalwa: value in parenthesis; for IC50: read-out: IC50 in μM Namalwa (Lymphoma)
Procedure: as §4, §5

[9] = system: Mino (Lymphoma) cell line; experiment: Proliferation of Mino; type: cell-based
Procedure: as §4, §5

[10] = system: Panc2.13 (Pancreatic) cell line; experiment: Proliferation of Panc2.13; type: cell-based; conditions: for ratio of (IC50 of K01)/(IC50 of compound), Panc2.13: value in parenthesis; for IC50: read-out: IC50 in μM Panc2.13 (Pancreatic)
Procedure: as §4, §5

[11] = system: KP-4 (Pancreatic) cell line; experiment: Proliferation of KP-4; type: cell-based; conditions: Homo sapiens, KP-4, read-out: IC50 in μM KP-4 (Pancreatic)
Procedure: as §4, §5

[12] = Homo sapiens, HL-60, read-out: IC50 in μM HL-60 (Leukemia)
[13] = Homo sapiens, MINO, read-out: IC50 in μM Mino (Lymphoma)

SMILES	ratio of (IC50 of K01)/(IC50 of compound), HL-60 ([7]; HL-60; value in parenthesis)	ratio of (IC50 of K01)/(IC50 of compound), Namalwa [8]	IC50 [8] [µM]	ratio of (IC50 of K01)/(IC50 of compound), Mino ([9]; Mino; value in parenthesis)	Ki ([1]; Ki PKCδ) [nM]	Ki ([2]; Ki PKCα) [nM]	Ki [3] [nM]	Ki [4] [nM]	Ki [5] [nM]	IC50 ([6]; A549, 96 h) [µM]	IC50 [7, 12] [µM]	IC50 [9, 13] [µM]	also measured
CC1=C[C@H]2[C@@]3(O)[C@H](C)C[C@]4(OC(=O)Cc5ccccc5)[C@H]([C@@H]3C=C(CO)C[C@]2(O)C1=O)C4(C)C [Compound K101-C1304]	18	3.29	0.01 to 0.03	15.6									Ki ([1]; read-out: Ki PKCδ): 5 to 10 nM; Ki ([2]; read-out: Ki PKCα): 100 to 200 nM; Ki ([3]; C1b domain of human PKCθ, 3H-PDBu competition, read-out: Ki PKCθ): 5 to 10 nM; Ki ([4]; C1b domain of human PKCε, 3H-PDBu competition, read-out: Ki PKCε): 1 to 30 nM; Ki ([5]; C1b domain of human PKD1 (PKCμ), 3H-PDBu competition, read-out: Ki PKD1/PKCμ): < 5 nM; IC50 ([6]; A549, 96 hours incubation, CellTiter Glo): 0.03 to 0.06 µM; IC50 ([7]; Homo sapiens, HL-60; read-out: IC50 in μM HL-60 (Leukemia)): 0.01 to 0.03 µM; IC50 ([9]; Homo sapiens, MINO; read-out: IC50 in μM Mino (Lymphoma)): 0.001 to 0.01 µM
CC1=C[C@H]2[C@@]3(O)[C@H](C)C[C@]4(OC(=O)[C@H](N)C(C)(C)c5ccc(C(F)(F)F)cc5)[C@H]([C@@H]3C=C(CO)C[C@]2(O)C1=O)C4(C)C [Compound K101-C134901]	2.75	0.49	0.1 to 0.2	3.88	1 to 30	200 to 400	1 to 30	1 to 30	5 to 10	0.2 to 0.6	0.1 to 0.2	0.01 to 0.03	
CC1=C[C@H]2[C@@]3(O)[C@H](C)C[C@]4(OC(=O)CCCc5ccccc5)[C@H]([C@@H]3C=C(CO)C[C@]2(O)C1=O)C4(C)C [Compound K101-C1324]	32.7	8.63	0.001 to 0.01	37.5	< 5	100 to 200	< 5	< 5	< 5	0.01 to 0.03	0.01 to 0.03	0.001 to 0.01	
CC1=C[C@H]2[C@@]3(O)[C@H](C)C[C@]4(OC(=O)CCc5ccc(C(F)(F)F)cc5)[C@H]([C@@H]3C=C(CO)C[C@]2(O)C1=O)C4(C)C [Compound K101-C1302]	72	13.8	0.001 to 0.01	75	< 5	30 to 60	< 5	< 5	< 5	0.01 to 0.03	0.001 to 0.01	< 0.001	
CC1=C[C@H]2[C@@]3(O)[C@H](C)C[C@]4(OC(=O)[C@@H](N)CCc5ccccc5)[C@H]([C@@H]3C=C(CO)C[C@]2(O)C1=O)C4(C)C [Compound K101-C1318]	3.21	0.93	0.06 to 0.1	3.18	5 to 10	100 to 200	1 to 30	30 to 60	< 5	0.1 to 0.2	0.1 to 0.2	0.01 to 0.03	ratio of (IC50 of K01)/(IC50 of compound), Panc2.13 [10]: 4.28; IC50 [10]: 0.2 to 0.6 µM; IC50 [11]: 0.1 to 0.2 µM
CC1=C[C@H]2[C@@]3(O)[C@H](C)C[C@]4(OC(=O)[C@@H](N)C(C)(C)c5ccc(C(F)(F)F)cc5)[C@H]([C@@H]3C=C(CO)C[C@]2(O)C1=O)C4(C)C [Compound K101-C134902]	12	3.5	0.01 to 0.03	15.7	< 5	30 to 60	5 to 10	1 to 30	< 5	0.03 to 0.06	0.01 to 0.03	0.001 to 0.01	
CC1=C[C@H]2[C@@]3(O)[C@H](C)C[C@]4(OC(=O)[C@@H](N)Cc5ccc(C(F)(F)F)cc5)[C@H]([C@@H]3C=C(CO)C[C@]2(O)C1=O)C4(C)C [Compound K101-C1342]	6.43	1.68	0.03 to 0.06	6.2	5 to 10	100 to 200			< 5	0.06 to 0.1	0.03 to 0.06	0.01 to 0.03	ratio of (IC50 of K01)/(IC50 of compound), Panc2.13 [10]: 6.79; IC50 [10]: 0.1 to 0.2 µM; IC50 [11]: 0.06 to 0.1 µM
CC1=C[C@H]2[C@@]3(O)[C@H](C)C[C@]4(O)[C@H]([C@@H]3C=C(CO)C[C@]2(O)C1=O)C4(C)C [Compound K101-C13OH]					6000 to 8000	> 8000	2000 to 4000	2000 to 4000	4000 to 6000	> 30			
CC1=C[C@H]2[C@@]3(O)[C@H](C)C[C@]4(OC(=O)C5CC6(C5)CN(C(=O)OC(C)(C)C)C6)[C@H]([C@@H]3C=C(CO)C[C@]2(O)C1=O)C4(C)C [Compound K101-C1311]					1 to 30	400 to 800	1 to 30	30 to 60	< 5	0.1 to 0.2			
CC1=C[C@H]2[C@@]3(O)[C@H](C)C[C@]4(OC(=O)CCC5CCCC5)[C@H]([C@@H]3C=C(CO)C[C@]2(O)C1=O)C4(C)C [Compound K101-C1301]	9.23	1.73	0.03 to 0.06	11	5 to 10	100 to 200	1 to 30	5 to 10	< 5	0.03 to 0.06	0.03 to 0.06	0.001 to 0.01	
